In patent US20200147069A1, “Compounds for The Reduction of The Deleterious Activity of Extended Nucleotide Repeat Containing Genes” (The Board of Trustees of the Leland Stanford Junior …, priority 2017, published 2020):

How the values were obtained:
[1] = molecular target: T1, interaction between Supt4h and NGN (Homo sapiens, UniProt O00267+P63272); test: Split Gaussia luciferase complementation assay (M2-8 cells); format: cell-based; conditions: for IC50: M2-8 cells, 24 hr, concentration at which signal was reduced to 50% of untreated
T1 construct: expressed in transfected cells
Method: i: pNBR-X1-Supt4-Gluc1 and pNEBR-X1-NGN-Gluc2 The HA-Supt4h and Flag-NGN fragments are amplified by PCR using the plasmid pHA-Supt4h-YC and pFlag-NGN-YN and sub-cloned individually into pcDNA3.1-Gluc1 and pcDNA3.1-Gluc2 (described in “A highly sensitive protein-protein interaction assay based on Gausssia luciferase” published at Nat Methods. 2006 December; 3(12):977-9. Epub 2006 Nov. 12). Then HA-Supt4h-Gluc1 and Flag-NGN-Gluc2 are amplified by PCR and inserted to pNEBR-X1-Hygro (New England BioLabs), which contain RheoSwitch responsive element under the control of RheoSwitch ligand.
PCR products containing the sequence from 5XRE to polyA in pNEBR-X1-NGN-G2 are inserted to pNEBR-X1-Supt4h-G1 at PciI site to generate Supt4h-G1 and NGN-G2 bidirectional under their own RheoSwitch responsive element and polyA in the same plasmid.
i: 293-R^1 is a cloned cell which is engineered to constitutively express RSL1 receptor/activator by transfecting HEK 293 cells with pNEBR-R^1 plasmid (New England BioLabs) and selected with Blasticidin.
ii: M2-8 is a cloned 293-R^1 cell which can inducibly express pNEBR-X1-Supt4h-G1-NGN-G2 by addition of RSL1. Two point mutations (M431 and M1101) are introduced to the GL1 and GL2 for better stability according to “A high-throughput cell-based Gaussia luciferase reporter assay for identifying modulators of fibulin-3 secretion” published on J Biomol Screen. 2013 July; 18(6):647-58. The cell line is selected by Hygromycin.
All the HEK-293 cells and derivative cell clones are maintained in DMEM containing 10% FBS plus corresponding antibiotics (250 μg/ml hygromycin B, 10 μg/ml blasticidin or both) at 37° C., 5% CO2. All the transfections are done by using lifpofectamine 2000 (Invitrogen) according to the manufacture's direction.
Plasmids harboring the Gluc1 and Gluc2 are co-transfected in a 1:1 ratio into 293-R^1 cells plated on tissue culture treated 24-well plates using Lipofectamine 2000 according to the manufacturer's instruction. For stable cell M2-8, the cells are plated into 96 well or 384 well white plate directly. 24 hours later, RheoSwitch ligand together with/without test compound is added to the cells for induction/drug treatment. After 24 hr, the cells are washed with PBS and the plate was put in −20° C. freezer for overnight. After taking out the plate from freezer, lysis buffer (30 mM Tris-HCl, pH 8.0, 5 mM NaCl, 0.1% Triton X-100) with 10 μg/ml native coelenterazine (Nanolight Technology) is immediately added to the cells. The cells are lysed at room temperature for one hour in dark. After shaking for about 1 min, 40 μl of cell lysate are transferred to a white 96 well plate. For M2-8 in white micro plate, no transfer is needed. Signal intensities (integrated 100 ms) were read on Tecan Infinite M200 or M1000.
The bioluminescence signal of Gaussia Luciferase from untreated M2-8 cells was set as 100% and the IC50 of the compound was defined as the compound concentration at which the signal intensity was reduced to 50%.
The split Gaussia luciferase complementation assay measures the interaction between Sup4h and NGN. NGN is the subunit of Supt5h that binds to Supt4h. […] Therefore, administration of Compound 1 results in decreased production of mutant proteins encoded by genes that include mutant nucleotide repeats.

elav::Htt97Q HD flies = test: Eclosion rate analysis in Drosophila HD model; format: in vivo, Drosophila melanogaster
Method: FIG. 2B. HD fly (elav::Htt97Q) eclosion rate was measured in the presence or absence of Compound 1 treatment. 100 newly hatched flies, generated from crossing of male (elav-gal4/cyo) and female (UAS-Htt97Q/UAS-Htt97Q) flies, were collected at […]. The eclosion rate was determined by the number of HD-flies (elav::Htt97Q) vs. the number of non HD-flies (cyo::Htt97Q) (N=3; *, p<0.05 by student's t test).
(§1) The Drosophila melanogaster (fruit fly) HD models used in this set of experiments carry the coding sequence of human Htt exon1 with 97 CAG repeats to mimic mutant Httof Huntington's disease (HD). The Gmr::Htt97Q fly, expressing mutant Htt primarily in the neurons of Drosophila compound eyes, has a severe degeneration of photoreceptor neurons and the phenotypic trait ‘rough eye’. The elav::Htt97Q fly expresses the mutant protein specifically in neuroblasts and glial cells in the Drosophila embryonic CNS, resulting in a substantially negative impact on eclosion. […]
A group of 15 male flies (elav-gal4/cyo) and 15 virgin-female (UAS-Htt97Q/UAS-Htt97Q) flies were cultured in a vial that contains standard yeast agar media without or with Compound 1. […] The eclosion rate is determined by the number of HD-flies vs. the number of non HD-flies in a total of 100 collected flies in each experimental condition. […]

Gmr-Htt97Q/+ HD flies = test: Eye morphology (rough eye) analysis in Drosophila HD model; format: in vivo, Drosophila melanogaster; conditions: 100 μM in media
Method: FIG. 2A. The morphology of compound eye was analyzed in fruit flies treated with or without Compound 1. […] To quantify the appearance of “rough eye” in Gmr-Htt97Q/+ treated with 10 and 100 μM of Compound 1, ten flies were randomly picked from each group and the number of flies with “rough eye” phenotype were determined under microscope. Compared to untreated group, the relative percentage of HD flies with “rough eye” phenotype in treated groups is shown (right panel). Data are presented as mean±SD (N=3; **, p<0.01 by student's t test).
as §1, with “eclosion. All of the fly stocks and genetics crosses were maintained at 25° C. on standard cornmeal yeast agar media.” for “eclosion.”

mutant HTT protein = test: Mutant HTT activity assay in induced pluripotent stem cells (iPSC); format: cell-based, human; conditions: iPSCs derived from a Huntington's disease patient, 24 hr, Western blot normalized by tubulin
Method: FIG. 1A-1B. iPSCs were treated with Compound 1 at different doses for 24 hr. The cells were collected and lysed for protein quantification. Equal amounts of protein were applied on SDS-PAGE gel for Western Blotting. Mutant HTT protein was recognized by polyQ antibody (MAB1574 from Millipore) while wild type HTT protein was blotted by anti-Huntingtin antibody (MAB2166 from Millipore) (FIG. 1A). Both proteins were scanned and quantified by Li-Cor Odyssey and normalized by tubulin (FIG. 1B).
Huntington disease patient iPSCs (ND36999 from Coriell Institute) were detached into single cells by Accutase (AT104 from Accutase) and plated on a 24-well plate coated with Matrigel (354277 from Corning). […] The protein concentrations were determined by BCA assay (Pierce, ThermoFisher). […] The protein level of mutant HTT, total HTT and tubulin were determined by immunoblotting with anti-poly Glutamine (MAB1574 from Millipore), anti-Huntingtin protein (MAB2166 from Millipore) and anti-alpha tubulin (AJ1034a from ABGENT). […] The band intensities were determined by Li-Cor Odyssey software.
Using the protocol reported above, iPSCs were treated with Compound 1 at various doses for 24 hr. The cells were collected and lysed for protein quantification. […] Both proteins were scanned and quantified by Li-Cor Odyssey and normalized by tubulin.

HD flies = test: Fly viability; format: in vivo, Drosophila melanogaster; conditions: dose that alleviated phenotypic defects

Row | IC50 [1] [nM] | Structure (SMILES) | also measured
1 | < 1000 | Cc1ccc2[nH]c3c(c2c1)CCCC3NCc1ccccc1 (stereo not drawn) | –
2 | < 1000 | O=C(NC1CCCc2c1[nH]c1ccc(Cl)cc21)c1ccccn1 (stereo not drawn) | –
3 | > 1000 | CC(C)Oc1ccc2[nH]c3c(c2c1)CCCC3NCCc1ccccc1 (stereo not drawn) | –
4 | > 1000 | CC(C)Oc1ccc2[nH]c3c(c2c1)CCCC3NC1CCCC1 (stereo not drawn) | –
5 | > 1000 | CC(C)NC1CCCc2c1[nH]c1ccc(OC(C)C)cc21 (stereo not drawn) | –
6 | < 1000 | CC(C)NC1CCCc2c1[nH]c1ccc(Br)cc21 (stereo not drawn) | –
7 | < 1000 | Brc1ccc2[nH]c3c(c2c1)CCCC3NC1CCCC1 (stereo not drawn) | –
8 | > 1000 | CCN1CCC(NC2CCCc3c2[nH]c2ccccc32)CC1 (stereo not drawn) | –
9 | < 1000 | Cc1ccc2[nH]c3c(c2c1)CCCC3NCc1ccc(F)cc1 (stereo not drawn) | –
10 | – | Brc1ccc2[nH]c3c(c2c1)CCCC3NCc1ccccc1 (stereo not drawn) [Compound 1] | eclosion rate (elav::Htt97Q HD flies): relatively low eclosion rate was reversed; incidence of rough eye phenotype (Gmr-Htt97Q/+ HD flies): 70% of the untreated group; mutant HTT protein level (mutant HTT protein): decreases mutant HTT protein; interaction between Sup4h and NGN ([1]; split Gaussia assay): interrupts the interaction between Sup4h and NGN; fly viability (HD flies): did not affect fly viability

Row | Structure (SMILES) | IC50 [1] [nM] | also measured
11 | Brc1ccc2[nH]c3c(c2c1)CCCC3NCc1ccccc1 (stereo not drawn) [drawing 40] | < 1000 | –
